Data: patent publication US20230074545A1, “TREATMENT OF CANCER WITH CDK12/13 INHIBITORS” (Kinnate Biopharma Inc., priority 2019, published 2023)

Key:
Assay in all cases: Radiometric kinase panel
Format in all cases: biochemical
ABL1 = molecular target: T1, ABL1 (Homo sapiens, UniProt P00519)
T1 construct: purchased ProQinase GmbH (Reaction Biology)
In short: (§1)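 Activity was measured radiometrically from [gamma-33P]-ATP incorporation into substrate. The kinases were recombinant human GST- or His-tagged proteins, full-length or active fragments, expressed in Sf9 or E. coli. Compound in 10% DMSO was added before the enzyme/substrate mix, which started the reaction.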

CAMKID = molecular target: T2, CAMKID (Homo sapiens, UniProt Q8IU85)
T2 construct: purchased ProQinase GmbH (Reaction Biology)
T2 sequence (Q8IU85 whole entry): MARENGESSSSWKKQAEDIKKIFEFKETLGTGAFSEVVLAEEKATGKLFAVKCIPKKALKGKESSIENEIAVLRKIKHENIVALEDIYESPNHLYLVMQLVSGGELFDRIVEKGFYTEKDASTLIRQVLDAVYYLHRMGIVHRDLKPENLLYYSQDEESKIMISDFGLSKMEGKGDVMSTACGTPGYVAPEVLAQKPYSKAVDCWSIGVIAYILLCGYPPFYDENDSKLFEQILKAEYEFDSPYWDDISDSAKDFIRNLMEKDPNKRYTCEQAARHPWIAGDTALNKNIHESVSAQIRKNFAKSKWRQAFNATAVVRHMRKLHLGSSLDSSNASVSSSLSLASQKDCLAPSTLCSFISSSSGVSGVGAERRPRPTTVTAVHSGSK
In short: as §1

CDK4/CycD3 = molecular target: T3, CDK4/CycD3 (Homo sapiens, UniProt P11802)
T3 construct: either as full-length or enzymatically active fragments; purchased ProQinase GmbH (Reaction Biology); host or cells: Sf9 insect cells or E. coli (not specified per kinase)
In short: as §1

INSRR = molecular target: T4, INSRR (Homo sapiens, UniProt P14616)
T4 construct: either as full-length or enzymatically active fragments; purchased ProQinase GmbH (Reaction Biology)
T4 sequence (P14616 27-1297): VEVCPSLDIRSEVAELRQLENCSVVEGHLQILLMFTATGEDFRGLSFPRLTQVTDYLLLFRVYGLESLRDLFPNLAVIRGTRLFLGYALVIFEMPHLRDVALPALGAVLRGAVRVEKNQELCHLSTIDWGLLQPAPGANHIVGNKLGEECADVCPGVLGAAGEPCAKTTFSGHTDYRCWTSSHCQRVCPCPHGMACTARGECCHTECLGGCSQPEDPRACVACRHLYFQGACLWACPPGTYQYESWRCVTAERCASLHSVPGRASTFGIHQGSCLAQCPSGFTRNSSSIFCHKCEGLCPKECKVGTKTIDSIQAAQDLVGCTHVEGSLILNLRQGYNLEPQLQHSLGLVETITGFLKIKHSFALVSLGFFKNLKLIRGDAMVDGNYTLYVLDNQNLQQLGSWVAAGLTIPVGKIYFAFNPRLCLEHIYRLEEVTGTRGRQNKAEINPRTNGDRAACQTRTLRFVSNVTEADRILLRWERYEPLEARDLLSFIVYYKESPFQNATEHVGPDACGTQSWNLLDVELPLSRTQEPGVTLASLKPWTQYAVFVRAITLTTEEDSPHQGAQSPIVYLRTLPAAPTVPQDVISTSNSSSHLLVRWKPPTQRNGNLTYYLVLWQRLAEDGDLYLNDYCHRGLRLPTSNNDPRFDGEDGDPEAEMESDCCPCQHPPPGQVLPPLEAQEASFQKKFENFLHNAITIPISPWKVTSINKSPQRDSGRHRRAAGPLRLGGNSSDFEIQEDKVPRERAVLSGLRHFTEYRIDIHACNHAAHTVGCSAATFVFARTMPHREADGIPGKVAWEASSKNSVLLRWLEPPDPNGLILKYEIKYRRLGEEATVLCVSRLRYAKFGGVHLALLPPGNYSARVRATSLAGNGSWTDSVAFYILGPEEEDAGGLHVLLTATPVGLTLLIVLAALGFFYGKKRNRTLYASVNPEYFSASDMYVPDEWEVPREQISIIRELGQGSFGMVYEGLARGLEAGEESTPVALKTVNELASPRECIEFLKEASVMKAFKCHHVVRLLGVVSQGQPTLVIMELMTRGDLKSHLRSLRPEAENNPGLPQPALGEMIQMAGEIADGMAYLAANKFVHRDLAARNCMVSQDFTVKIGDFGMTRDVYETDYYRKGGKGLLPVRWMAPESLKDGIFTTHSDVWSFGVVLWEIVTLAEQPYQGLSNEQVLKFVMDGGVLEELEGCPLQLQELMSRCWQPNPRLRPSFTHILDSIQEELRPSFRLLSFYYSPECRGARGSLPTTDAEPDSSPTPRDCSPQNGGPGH
In short: as §1

EIF2AK2 = molecular target: T5, EIF2AK2 (Homo sapiens, UniProt P19525)
T5 construct: either as full-length or enzymatically active fragments; purchased ProQinase GmbH (Reaction Biology); host or cells: Sf9 insect cells or E. coli
In short: as §1

PKN3 = molecular target: T6, PKN3 (Homo sapiens, UniProt Q6P5Z2)
T6 construct: purchased ProQinase GmbH (Reaction Biology)
In short: as §1

NEK1 = molecular target: T7, NEK1 (Homo sapiens, UniProt Q96PY6)
T7 construct: purchased ProQinase GmbH (Reaction Biology)
In short: as §1

GSK3beta = molecular target: T8, GSK3beta (Homo sapiens, UniProt P49841)
T8 construct: either as full-length or enzymatically active fragments; purchased ProQinase GmbH (Reaction Biology)
T8 sequence (P49841 whole entry, the tested form may be a part): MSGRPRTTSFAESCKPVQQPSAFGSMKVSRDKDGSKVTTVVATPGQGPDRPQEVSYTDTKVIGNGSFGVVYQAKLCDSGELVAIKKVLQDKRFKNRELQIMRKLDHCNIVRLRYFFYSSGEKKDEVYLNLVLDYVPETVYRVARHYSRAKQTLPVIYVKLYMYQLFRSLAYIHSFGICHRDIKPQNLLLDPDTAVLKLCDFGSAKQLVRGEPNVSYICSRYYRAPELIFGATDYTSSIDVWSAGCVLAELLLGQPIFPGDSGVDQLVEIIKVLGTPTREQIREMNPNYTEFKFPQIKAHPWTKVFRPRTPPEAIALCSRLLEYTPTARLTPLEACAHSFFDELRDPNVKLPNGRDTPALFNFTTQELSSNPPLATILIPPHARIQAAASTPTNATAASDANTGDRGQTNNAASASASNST
In short: as §1

PKMzeta = molecular target: T9, PKMzeta (Homo sapiens, UniProt Q05513)
T9 construct: either as full-length or enzymatically active fragments; purchased ProQinase GmbH (Reaction Biology); host or cells: Sf9 insect cells or E. coli
In short: as §1

SRPK1 = molecular target: T10, SRPK1 (Homo sapiens, UniProt Q96SB4)
T10 construct: either as full-length or enzymatically active fragments; purchased ProQinase GmbH (Reaction Biology)
In short: as §1

SYK = molecular target: T11, SYK (Homo sapiens, UniProt P43405)
T11 construct: either as full-length or enzymatically active fragments; purchased ProQinase GmbH (Reaction Biology)
In short: as §1

IKKbeta = molecular target: T12, IKKbeta (Homo sapiens, UniProt O14920)
T12 construct: purchased ProQinase GmbH (Reaction Biology); host or cells: Sf9 insect cells or E. coli (not specified per kinase)
In short: as §1

PKCnu = molecular target: T13, PKCnu (Homo sapiens, UniProt O94806)
T13 construct: either as full-length or enzymatically active fragments; purchased ProQinase GmbH (Reaction Biology)
In short: as §1

MINK1 = molecular target: T14, MINK1 (Homo sapiens, UniProt Q8N4C8)
T14 construct: either as full-length or enzymatically active fragments; purchased ProQinase GmbH (Reaction Biology)
In short: as §1

CDC42BPA = molecular target: T15, CDC42BPA (Homo sapiens, UniProt Q5VT25)
T15 construct: either as full-length or enzymatically active fragments; purchased ProQinase GmbH (Reaction Biology); host or cells: Sf9 insect cells or E. coli
T15 sequence (Q5VT25 whole entry, the tested form may be a part): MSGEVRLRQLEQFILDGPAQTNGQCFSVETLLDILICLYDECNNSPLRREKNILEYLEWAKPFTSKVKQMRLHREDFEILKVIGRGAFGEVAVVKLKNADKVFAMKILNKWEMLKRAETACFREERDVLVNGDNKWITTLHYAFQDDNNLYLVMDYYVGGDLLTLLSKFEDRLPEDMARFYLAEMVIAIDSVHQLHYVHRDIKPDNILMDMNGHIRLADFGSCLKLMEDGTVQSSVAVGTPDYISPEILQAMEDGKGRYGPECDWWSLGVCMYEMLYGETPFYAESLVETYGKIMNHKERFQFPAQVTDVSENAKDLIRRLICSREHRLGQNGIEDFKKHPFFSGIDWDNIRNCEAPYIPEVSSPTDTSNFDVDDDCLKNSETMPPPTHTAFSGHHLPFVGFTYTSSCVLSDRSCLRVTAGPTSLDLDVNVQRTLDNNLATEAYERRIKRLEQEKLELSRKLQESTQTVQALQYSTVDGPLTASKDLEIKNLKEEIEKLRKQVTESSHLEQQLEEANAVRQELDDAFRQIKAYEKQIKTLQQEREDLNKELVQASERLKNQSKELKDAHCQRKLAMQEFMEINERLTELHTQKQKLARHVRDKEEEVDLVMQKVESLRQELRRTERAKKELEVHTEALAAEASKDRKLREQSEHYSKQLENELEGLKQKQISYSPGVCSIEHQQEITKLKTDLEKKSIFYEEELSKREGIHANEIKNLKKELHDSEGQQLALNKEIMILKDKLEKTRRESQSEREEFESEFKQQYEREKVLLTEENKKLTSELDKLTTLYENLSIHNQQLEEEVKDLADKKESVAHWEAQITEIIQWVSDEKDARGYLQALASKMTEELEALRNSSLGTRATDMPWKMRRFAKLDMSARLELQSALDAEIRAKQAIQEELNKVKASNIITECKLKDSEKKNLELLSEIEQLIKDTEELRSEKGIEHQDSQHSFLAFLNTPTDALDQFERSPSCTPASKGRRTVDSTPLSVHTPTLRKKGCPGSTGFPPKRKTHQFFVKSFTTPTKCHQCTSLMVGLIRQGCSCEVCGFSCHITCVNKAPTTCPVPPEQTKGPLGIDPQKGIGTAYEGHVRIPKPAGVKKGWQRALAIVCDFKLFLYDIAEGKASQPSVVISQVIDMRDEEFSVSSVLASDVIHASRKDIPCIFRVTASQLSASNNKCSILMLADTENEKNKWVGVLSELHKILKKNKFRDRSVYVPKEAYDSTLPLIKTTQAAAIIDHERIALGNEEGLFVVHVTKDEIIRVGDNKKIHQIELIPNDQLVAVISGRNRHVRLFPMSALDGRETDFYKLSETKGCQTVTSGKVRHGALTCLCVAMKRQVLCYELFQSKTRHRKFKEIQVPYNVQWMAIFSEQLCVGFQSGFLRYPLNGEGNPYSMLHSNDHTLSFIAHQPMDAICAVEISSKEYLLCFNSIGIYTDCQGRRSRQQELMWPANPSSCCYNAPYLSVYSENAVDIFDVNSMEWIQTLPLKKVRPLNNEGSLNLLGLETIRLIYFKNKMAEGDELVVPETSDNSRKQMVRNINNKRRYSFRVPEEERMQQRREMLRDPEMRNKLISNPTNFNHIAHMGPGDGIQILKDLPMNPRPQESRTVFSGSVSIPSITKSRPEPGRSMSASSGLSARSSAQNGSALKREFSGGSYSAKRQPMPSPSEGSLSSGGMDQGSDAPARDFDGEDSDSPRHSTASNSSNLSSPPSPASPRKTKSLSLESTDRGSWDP
In short: as §1

CDK2/CycA2 = molecular target: T16, CDK2/CycA2 (Homo sapiens, UniProt P24941)
T16 construct: either as full-length or enzymatically active fragments; purchased ProQinase GmbH (Reaction Biology); host or cells: Sf9 insect cells or E. coli
In short: as §1

SRMS = molecular target: T17, SRMS (Homo sapiens, UniProt Q9H3Y6)
T17 construct: purchased ProQinase GmbH (Reaction Biology)
In short: as §1

EPHB3 = molecular target: T18, EPHB3 (Homo sapiens, UniProt P54753)
T18 construct: either as full-length or enzymatically active fragments; purchased ProQinase GmbH (Reaction Biology)
In short: as §1

EPHA4 = molecular target: T19, EPHA4 (Homo sapiens, UniProt P54764)
T19 construct: either as full-length or enzymatically active fragments; purchased ProQinase GmbH (Reaction Biology)
In short: as §1

CSK = molecular target: T20, CSK (Homo sapiens, UniProt P41240)
T20 construct: either as full-length or enzymatically active fragments; purchased ProQinase GmbH (Reaction Biology)
In short: as §1

NEK4 = molecular target: T21, NEK4 (Homo sapiens, UniProt P51957)
T21 construct: purchased ProQinase GmbH (Reaction Biology)
In short: as §1

ERK7 = molecular target: T22, ERK7 (Homo sapiens, UniProt Q8TD08)
T22 construct: either as full-length or enzymatically active fragments; purchased ProQinase GmbH (Reaction Biology)
In short: as §1

TEC = molecular target: T23, TEC (Homo sapiens, UniProt P42680)
T23 construct: either as full-length or enzymatically active fragments; purchased ProQinase GmbH (Reaction Biology)
T23 sequence (P42680 whole entry, the tested form may be a part): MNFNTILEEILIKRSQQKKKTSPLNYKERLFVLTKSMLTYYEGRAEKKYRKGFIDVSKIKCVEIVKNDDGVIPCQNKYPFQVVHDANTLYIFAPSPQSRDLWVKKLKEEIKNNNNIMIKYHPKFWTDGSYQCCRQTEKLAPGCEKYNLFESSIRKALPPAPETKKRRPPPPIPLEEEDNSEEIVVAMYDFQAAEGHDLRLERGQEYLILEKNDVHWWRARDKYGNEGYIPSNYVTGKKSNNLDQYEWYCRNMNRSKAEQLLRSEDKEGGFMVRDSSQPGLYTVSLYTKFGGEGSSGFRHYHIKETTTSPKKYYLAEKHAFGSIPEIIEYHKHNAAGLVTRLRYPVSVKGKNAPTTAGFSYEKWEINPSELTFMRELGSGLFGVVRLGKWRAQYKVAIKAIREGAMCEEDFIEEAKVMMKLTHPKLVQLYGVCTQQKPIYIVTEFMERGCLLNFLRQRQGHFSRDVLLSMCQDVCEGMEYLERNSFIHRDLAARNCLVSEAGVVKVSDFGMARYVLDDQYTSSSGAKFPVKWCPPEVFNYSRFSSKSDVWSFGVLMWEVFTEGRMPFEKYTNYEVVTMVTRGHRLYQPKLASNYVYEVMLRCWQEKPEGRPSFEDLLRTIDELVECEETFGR
In short: as §1

CK1gamma3 = molecular target: T24, CK1gamma3 (Homo sapiens, UniProt Q9Y6M4)
T24 construct: either as full-length or enzymatically active fragments; purchased ProQinase GmbH (Reaction Biology)
In short: as §1

NEK2 = molecular target: T25, NEK2 (Homo sapiens, UniProt P51955)
T25 construct: either as full-length or enzymatically active fragments; purchased ProQinase GmbH (Reaction Biology)
In short: as §1

SGK2 = molecular target: T26, SGK2 (Homo sapiens, UniProt Q9HBY8)
T26 construct: purchased ProQinase GmbH (Reaction Biology); host or cells: Sf9 insect cells or E. coli (not specified per kinase)
T26 sequence (Q9HBY8 whole entry): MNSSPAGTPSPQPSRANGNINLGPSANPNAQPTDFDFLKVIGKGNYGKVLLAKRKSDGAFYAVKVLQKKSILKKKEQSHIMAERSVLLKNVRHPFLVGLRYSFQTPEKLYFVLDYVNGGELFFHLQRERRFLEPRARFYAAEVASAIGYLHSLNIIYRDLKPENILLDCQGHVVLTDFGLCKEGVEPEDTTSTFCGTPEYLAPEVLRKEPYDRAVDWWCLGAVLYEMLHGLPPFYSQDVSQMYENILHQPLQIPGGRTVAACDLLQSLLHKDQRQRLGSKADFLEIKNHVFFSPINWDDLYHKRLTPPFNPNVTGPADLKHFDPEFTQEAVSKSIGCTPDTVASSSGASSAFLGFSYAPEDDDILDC
In short: as §1

EPHA1 = molecular target: T27, EPHA1 (Homo sapiens, UniProt P21709)
T27 construct: either as full-length or enzymatically active fragments; purchased ProQinase GmbH (Reaction Biology)
In short: as §1

FAK = molecular target: T28, FAK (Homo sapiens, UniProt Q05397)
T28 construct: either as full-length or enzymatically active fragments; purchased ProQinase GmbH (Reaction Biology); host or cells: Sf9 insect cells or E. coli
In short: as §1

ACVR2A = molecular target: T29, ACVR2A (Homo sapiens, UniProt P27037)
T29 construct: either as full-length or enzymatically active fragments; purchased ProQinase GmbH (Reaction Biology)
In short: as §1

p38gamma = molecular target: T30, p38gamma (Homo sapiens, UniProt P53778)
T30 construct: either as full-length or enzymatically active fragments; purchased ProQinase GmbH (Reaction Biology); host or cells: Sf9 insect cells or E. coli (not specified per kinase)
In short: as §1

GRK3 = molecular target: T31, GRK3 (Homo sapiens, UniProt P35626)
T31 construct: either as full-length or enzymatically active fragments; purchased ProQinase GmbH (Reaction Biology)
In short: as §1

## C=CC(=O)Nc1ccc(C(=O)N2CC[C@@H](Nc3ncc(C#N)cn3)C2)cc1 [Compound 4, (R)-N-(4-(3-((5-cyanopyrimidin-2-yl)amino)pyrrolidine-1-carbonyl)phenyl)acrylamide]
ABL1
  inhibition at 1 µM: -1%
CAMKID
  inhibition at 1 µM: 0%
CDK4/CycD3
  inhibition at 1 µM: 10%
INSRR
  inhibition at 1 µM: 5%
EIF2AK2
  inhibition at 1 µM: 15%
PKN3
  inhibition at 1 µM: -2%
NEK1
  inhibition at 1 µM: 0%
GSK3beta
  inhibition at 1 µM: 8%
PKMzeta
  inhibition at 1 µM: 12%
SRPK1
  inhibition at 1 µM: -8%
SYK
  inhibition at 1 µM: 2%
IKKbeta
  inhibition at 1 µM: 1%
PKCnu
  inhibition at 1 µM: 4%
MINK1
  inhibition at 1 µM: 16%
CDC42BPA
  inhibition at 1 µM: -16%
CDK2/CycA2
  inhibition at 1 µM: 15%
SRMS
  inhibition at 1 µM: -2%
EPHB3
  inhibition at 1 µM: 5%
EPHA4
  inhibition at 1 µM: 2%
CSK
  inhibition at 1 µM: 7%
NEK4
  inhibition at 1 µM: -1%
ERK7
  inhibition at 1 µM: 17%
TEC
  inhibition at 1 µM: 5%
CK1gamma3
  inhibition at 1 µM: -8%
NEK2
  inhibition at 1 µM: -8%
SGK2
  inhibition at 1 µM: 1%
EPHA1
  inhibition at 1 µM: 3%
FAK
  inhibition at 1 µM: -15%
ACVR2A
  inhibition at 1 µM: 7%
p38gamma
  inhibition at 1 µM: 10%
GRK3
  inhibition at 1 µM: 5%
